Literature values as cited in patent US8383585B2, “Biomarkers for cardiodiabetes” (IKFE Institut fur Klinische Forschung und Entwicklung GmbH, priority 2008, dated 2013).

How the values were obtained:
Parameters in all cases: key: ↑: An up arrow indicates an increase in biomarker levels; ↓: a down arrow indicates a decrease; ◯: “O” indicates substantially no change
Settings in all cases: effect on biomarker level in a subject
hsCRP = system: hsCRP
adiponectin = system: adiponectin
intact proinsulin = system: intact proinsulin

Row | Molecule | hsCRP (hsCRP) | adiponectin (adiponectin) | intact proinsulin (intact proinsulin)
1 | insulin | ◯ | ◯ | ↓
2 | CN(C)C(=N)N=C(N)N [metformin] | ◯ | ↑ | ↓
